Earlier results, collected in article PMC13612640 (Cancer Chemotherapy and Pharmacology, 2026).

Set-up: method as in PMID 41165508

## COc1ccc(F)cc1C(=O)NCc1ccc(-c2nn([C@@H](C)C(F)(F)F)c(N)c2C(N)=O)cc1 [pirtobrutinib]
  Plasma fraction unbound (fu): 0.046
